This assay addresses SARS-CoV-2 NSP3 macrodomain (Mac1) (Severe acute respiratory syndrome coronavirus 2, UniProt P0DTD1). Nature of the assay: biochemical. The format is binding.
The mark [1] stands for this setting: single dose concentration 200 μM (TS-FrankenROCS series).
Where [2] appears, read: compound at 200 μM, mean of three to four technical replicates, read-out: % competition at 200 μM (preliminary HTRF screen).
[3] abbreviates: SARS CoV-2 macrodomain HTRF assay, single dose concentration 200 μM.
Setting [4] is: Single dose, concentration 200 μM.
[5] abbreviates: SARS CoV-2 macrodomain HTRF assay, single dose concentration 200 μM, read-out: Average % competition.
[6] abbreviates: read-out: IC50 (confirmatory HTRF dose-response screen).
Setting [7] is: SARS CoV-2 macrodomain HTRF assay.
Where [8] appears, read: SARS CoV-2 macrodomain HTRF assay, dose-response, read-out: IC50.

What is called IC50 is the point on the concentration scale where inhibition reaches its midpoint. Broadly, the Ki is a dissociation constant, usually derived from enzyme kinetics or from competition with a known ligand. Higher therefore signals lower affinity.

Read-outs that look alike come from different tables or passages of the source.

With `CC1c2ccsc2CCN1C(=O)Cc1csc(-c2ccccc2)n1` (stereo not drawn) [AVI-287], the Average % competition is on record as 0%.

As to `O=C1COc2cc(C(=O)N3CC(C(=O)O)c4ccccc43)ccc2N1` (stereo not drawn) [AVI-289], the IC50 (dose-response, read-out: IC50) is greater than 1000 µM.

In turn, `Cc1nc2cc(NC(=O)C3CC(=O)Nc4ccccc43)ccc2o1` (stereo not drawn) [AVI-292] came in with an Average % competition of 0%.

Regarding `Cc1ncc(CN(C)C(=O)c2cccc(N)c2F)s1` [AVI-293], the 50% inhibitory concentration (IC50) (dose-response, read-out: IC50) was greater than 1000 µM. This compound returned an Average % competition under setting [1] of 14%.

Compound `CC1CN(C(=O)c2ccccc2S(C)(=O)=O)c2cccnc2O1` (stereo not drawn) [AVI-294] registered an Average % competition of 13%.

In turn, `CCCC1CCCC1C(=O)N[C@H]1CCc2nc(N)sc2C1` (stereo partly drawn) [AVI-298] showed an Average % competition of less than 10%.

`CC(=O)Nc1ccc(S(=O)(=O)CCCN2C(=O)CC(C)(C(C)C)C2=O)cc1` (stereo not drawn) [AVI-299] returned an Average % competition of 19%.

`O=C(NCCCN1C(=O)NC2(CCCC2)C1=O)c1ccc(=O)[nH]c1` [AVI-300] came in with an Average % competition of 8%.

Take `Cc1ccc2c(c1)C(=O)N(CCC(=O)Nc1cnc3c(c1)c(C)nn3C)C2=O` [AVI-301]: the Average % competition was determined as 16%.

In turn, `Cc1nnc2n1CCN(C(=O)CN1C(=O)CCOc3ccccc31)C2` [AVI-302] showed an Average % competition of 0%.

Regarding `CC(OC(=O)c1ccc2nc(N)sc2c1)C(=O)N1CCCCCC1` (stereo not drawn) [AVI-304], the Average % competition came to 0%.

Compound `CNC(=O)c1ccc(NC(=O)C2CC(=O)Nc3ccccc32)cc1` (stereo not drawn) [AVI-305] showed an Average % competition of 0%.

In the case of `Cc1nc(-c2cccc(NC(=O)NCc3cccs3)c2)n[nH]1` [AVI-306], the half-maximal inhibitory concentration (IC50) (dose-response, read-out: IC50) was greater than 1000 µM.

As to `O=C1CC(C(=O)Nc2nc3c(s2)CCCC3)c2ccccc2N1` (stereo not drawn) [AVI-307], the Average % competition was 0%.

Compound `c1ccn2c(Sc3ncnc4ccsc34)nnc2c1` [AVI-308] had an Average % competition of 0%.

`CNS(=O)(=O)c1cc(C(=O)N2CCOc3ccccc32)n(C)c1` [AVI-309] showed an Average % competition of 0%.

`Cc1ccc(O)c(C(=O)c2cnn3c(N)nnc3c2)c1` [AVI-310]: the Average % competition came out at 0%.

On to `O=C(O)C1CN(C(=O)c2cccc3[nH]ccc23)c2ccccc21` (stereo not drawn) [AVI-314], for which the 50% inhibitory concentration (IC50) (dose-response, read-out: IC50) was greater than 1000 µM.

`CC(=O)Nc1ccc(NC(=O)CSc2nnnn2C2CCCC2)cc1` [AVI-315] displayed an Average % competition of 0%.

Take `O=C(c1cc(C2CCCCC2)[nH]n1)N1CCCC(O)(C(F)(F)F)CC1` (stereo not drawn) [AVI-318]: the Average % competition is 13%.

In the case of `O=C(O)C1CN(C(=O)c2ccc3n[nH]nc3c2)c2ccccc21` (stereo not drawn) [AVI-319], the Average % competition stood at 25%.

The compound `Cc1ccc(C)c(CN2C(=O)NC(C)(Cc3ccc4c(c3)OCO4)C2=O)c1` (stereo not drawn) [AVI-320] came in with an Average % competition of 18%.

Compound `Cc1noc(NCc2cc3ccccc3[nH]c2=O)n1` [AVI-322] displayed an Average % competition of 0%.

`O=C(O)C1CN(C(=O)c2ccc3c(c2)OCCO3)CCO1` (stereo not drawn) [AVI-323] displayed an Average % competition of 7%.

Turning to `Nc1ncnc(N2CCC(C(F)(F)F)C3(CCC3)C2)c1Cl` (stereo not drawn) [AVI-324], the Average % competition is given as less than 10%.

In turn, `CCOc1ccc(-c2nc(CC(=O)N3CCn4cccc4C3C)cs2)cc1` (stereo not drawn) [AVI-325] yielded an Average % competition of 0%.

Consider `O=C(O)C1CCc2nnc(-c3ccc(F)cc3)n2C1` (stereo not drawn) [AVI-326], for which the Average % competition is given as 15%.

For `Cc1nn(C)c2sc(C(=O)N3CC(C(=O)O)c4ccccc43)cc12` (stereo not drawn) [AVI-327], the Average % competition turned out to be 0%.

The compound `NC(=O)N1CCC[C@H]1C(=O)Nc1ccc2ncnn2c1` [AVI-330] had an Average % competition of 14%.

Take `Nc1ncnc2sc3c(c12)CCN(C(=O)[C@H]1CC=CCC1)C3` [AVI-331]: the Average % competition is reported as less than 10%.

In turn, `N#Cc1cnc(CSc2nc(-c3ccccc3)co2)nc1N` [AVI-332] returned an Average % competition of less than 10%.

Turning to `O=C(O)c1ccc2c(c1)C(NC(=O)C1CCn3ncnc3C1)CCC2` (stereo not drawn) [AVI-333], the Average % competition is given as 21%.

Consider `CC1CCCC1OC(=O)Cn1cnc2c1c(=O)n(C)c(=O)n2C` (stereo not drawn) [AVI-335], for which the Average % competition is less than 10%.

For the compound `Cc1ccc(N2CCN(c3ncnc(-c4ccccc4)n3)CC2=O)cc1` [AVI-336], the Average % competition is recorded as less than 10%.

`CC(C(=O)NCc1c(C(=O)O)[nH]c2ccccc12)n1cncn1` (stereo not drawn) [AVI-337] yielded an Average % competition of 14%.

For the compound `O=C1CCc2cc(C(=O)N3CC(C(=O)O)CCC34CCCC4)c(F)cc2N1` (stereo not drawn) [AVI-338], the “Ligand efficiency (binding enery per heavy atom)” value was determined as 0.16. Further, the Ki (dose-response) came out at 740 µM. Besides, under “dose-response, read-out: IC50”, the IC50 was 800 µM.

As for `Nc1cc(N2CCC3CCCCC3C2)ncn1` (stereo not drawn) [AVI-339], the half-maximal inhibitory concentration (IC50) (dose-response, read-out: IC50) is greater than 1000 µM. Under setting [1], this compound yielded an Average % competition of less than 10%.

As for `CC1(c2ccc(F)cc2)CN(C(=O)c2cnc(N)nc2C(F)(F)F)C1` [AVI-340], the Average % competition was 20%.

Consider `Cn1ccc2cc(NC(=O)C3CC(=O)NC4CCCCC43)ccc21` (stereo not drawn) [AVI-342], for which the Average % competition was less than 10%.

The compound `Cc1nc(N)ncc1C(=O)NCC(O)Cc1ccc(Cl)cc1` (stereo not drawn) [AVI-343] yielded an Average % competition of less than 10%.

The compound `COc1ccc(-c2nccc(N3CCC(c4ccsc4)CC3)n2)cc1` [AVI-344] showed an Average % competition of less than 10%.

In the case of `CNc1ccc(NS(=O)(=O)c2cc3cccc(C)c3s2)cn1` [AVI-345], under setting [2], the inhibition at 200 µM stood at 18%. The Average % competition under setting [1] stood at 18%.

Take `O=c1[nH]c2ccccc2cc1CNc1nc(C2CC2)ns1` [AVI-346]: the IC50 (dose-response, read-out: IC50) was greater than 1000 µM. Also, the Average % competition under setting [1] is recorded as less than 10%.

Compound `Cc1ccc(CC(=O)N2CCSC23CC(C(=O)O)C3)cc1O` (stereo not drawn) [AVI-347] came in with an Average % competition of less than 10%.

`CC(NC(=O)c1ccc(N)nc1Cl)C(O)c1cccc(F)c1` (stereo not drawn) [AVI-349] returned an Average % competition of 15%.

In turn, `O[C@@]1(Cn2ccnn2)CCCN(c2ncnc3[nH]ccc23)C1` [AVI-608] yielded an Average % competition under setting [3] of 8%. Further, the inhibition at 200 µM under setting [2] was less than 10%.

Under setting [4], `O[C@@H]1CNCC[C@H]1Nc1ncnc2[nH]ccc12` [AVI-613] yielded an Average % competition of less than 10%. Also, under setting [2], the inhibition at 200 µM was less than 10%.

As for `CN(C)C[C@@]1(O)CCCN(c2ncnc3[nH]ccc23)C1` [AVI-614], under setting [3], the Average % competition was less than 10%. For the same compound, under setting [2], the inhibition at 200 µM is less than 10%.

For `O[C@H]1CNCC[C@@H]1Nc1ncnc2[nH]ccc12` [AVI-615], the inhibition at 200 µM by setting is: under setting [5], less than 10%; under setting [2], less than 10%.

`O=C(O)C(F)(F)F.OC1c2ccccc2CC1Nc1ncnc2[nH]ccc12` (stereo not drawn) [AVI-3634] returned an Average % competition under setting [4] of less than 10%. In addition, the inhibition at 200 µM under setting [2] was less than 10%.

As for `O=C(O)C(F)(F)F.OCC(Nc1ncnc2[nH]ccc12)C1CCCO1` (stereo not drawn) [AVI-3645], the Average % competition under setting [4] turned out to be 54%. In addition, the inhibition at 200 µM under setting [2] turned out to be 54%.

In the case of `O=C(O)C(F)(F)F.OC[C@@H](CCc1ccccc1)Nc1ncnc2[nH]ccc12` [AVI-3654], the Average % competition under setting [4] turned out to be 27%. The inhibition at 200 µM under setting [2] is 27%.

As to `CC(C)CCC(CO)Nc1ncnc2[nH]ccc12.O=C(O)C(F)(F)F` (stereo not drawn) [AVI-3668], the Average % competition under setting [4] is 38%. Besides, the inhibition at 200 µM under setting [2] is 38%.

Under setting [4], `O=C(O)C(F)(F)F.O=[N+]([O-])c1ccc(C(O)C(CO)Nc2ncnc3[nH]ccc23)cc1` (stereo not drawn) [AVI-3672] came in with an Average % competition of 43%. Moreover, the inhibition at 200 µM under setting [2] is 43%.

`O=C(O)C(F)(F)F.OCC(CC1CCOCC1)Nc1ncnc2[nH]ccc12` (stereo not drawn) [AVI-3676]: the Average % competition under setting [4] was less than 10%. Under setting [2], the inhibition at 200 µM was less than 10%.

`O=C(O)C(F)(F)F.OCC(Nc1ncnc2[nH]ccc12)C(O)C1CCCCC1` (stereo not drawn) [AVI-3687]: the Average % competition under setting [4] amounted to 33%. Further, the inhibition at 200 µM under setting [2] worked out at 33%.

`O=C(O)C(F)(F)F.OCC(Cc1cccc(F)c1)Nc1ncnc2[nH]ccc12` (stereo not drawn) [AVI-3706]: the Average % competition under setting [4] is listed as 77%. Also, the inhibition at 200 µM under setting [2] came out at 77%.

Regarding `O=C(O)C(F)(F)F.OCC1C2C=CC(C2)N1c1ncnc2[nH]ccc12` (stereo not drawn) [AVI-3712], the inhibition at 200 µM under setting [5] was determined as 55% and the inhibition at 200 µM under setting [2] was 55%.

In turn, `CC(C)(C)C(O)CC(CO)Nc1ncnc2[nH]ccc12.O=C(O)C(F)(F)F` (stereo not drawn) [AVI-3714] registered an Average % competition under setting [4] of less than 10%. For the same compound, the inhibition at 200 µM under setting [2] was less than 10%.

Under setting [4], `OC1CC(Cn2ccnc2)CC1Nc1ncnc2[nH]ccc12` (stereo not drawn) [AVI-3725] returned an Average % competition of 29%. Further, the inhibition at 200 µM under setting [2] came out at 29%.

In turn, `Cc1c[nH]c2ncnc(NCC3(O)CCCCC3)c12` [AVI-3761, 1-(((5-methyl-7H-pyrrolo[2,3-d]pyrimidin-4-yl)amino)methyl)cyclohexan-1-ol] showed an inhibition constant (Ki) of 12 µM. Moreover, the IC50 under setting [6] is 13 µM.

Consider `CC(O)C1CCCN1c1ncnc2[nH]ccc12` (stereo not drawn) [AVI-4062], for which the “fold decrease in affinity relative to AVI-607” value (HTRF) is ~ 10 fold. Also, under setting [7], the Ki came to 51 µM and the “Ligand efficiency (binding enery per heavy atom)” value came out at 0.35. The half-inhibitory concentration (IC50) under setting [6] is 55 µM.

For `C[C@H]1CC[C@H](CO)N(c2ncnc3[nH]ccc23)C1` [AVI-4063], under setting [7], affinity was put at a Ki of 52 µM and the “Ligand efficiency (binding enery per heavy atom)” value was determined as 0.33. For the same compound, the IC50 under setting [8] was determined as 56 µM.

Consider `OCC1CCC2(CCOCC2)CN1c1ncnc2[nH]ccc12` (stereo not drawn) [AVI-4065], for which, under setting [7], the Ki was 400 µM and the “Ligand efficiency (binding enery per heavy atom)” value is given as 0.21. Further, the IC50 under setting [8] worked out at 430 µM.

On to `Cc1c[nH]c2ncnc(NCC3(O)CCOCC3)c12` [AVI-4194, 4-(((5-methyl-7H-pyrrolo[2,3-d]pyrimidin-4-yl)amino)methyl)tetrahydro-2H-pyran-4-ol], for which, under setting [7], the Ki stood at 150 µM and the “Ligand efficiency (binding enery per heavy atom)” value is 0.28. Further, the IC50 under setting [8] is 160 µM.

These data come from paper PMC12118597 (Science Advances, 2025).
